Experimental findings from patent US7981903B2, “2-[2-{phenylamino}-1H-pyrrolo[2,3-D]pyrimidin-4-yl)amino] benzamide derivatives as IGF-1R inhibitors for the treatment of cancer” (GlaxoSmithKline LLC, priority 2007, dated 2011) are described below.

The structures appear in SMILES notation.

For assay [1], the target named is T1, human IR (hIR) (Homo sapiens, UniProt P06213).
T1 construct: containing amino acid residues 979-1382 of human IR; made in house; host or cells: Sf9 cells (baculovirus), same process as hIGF1R
T1 sequence (P06213 979-1382): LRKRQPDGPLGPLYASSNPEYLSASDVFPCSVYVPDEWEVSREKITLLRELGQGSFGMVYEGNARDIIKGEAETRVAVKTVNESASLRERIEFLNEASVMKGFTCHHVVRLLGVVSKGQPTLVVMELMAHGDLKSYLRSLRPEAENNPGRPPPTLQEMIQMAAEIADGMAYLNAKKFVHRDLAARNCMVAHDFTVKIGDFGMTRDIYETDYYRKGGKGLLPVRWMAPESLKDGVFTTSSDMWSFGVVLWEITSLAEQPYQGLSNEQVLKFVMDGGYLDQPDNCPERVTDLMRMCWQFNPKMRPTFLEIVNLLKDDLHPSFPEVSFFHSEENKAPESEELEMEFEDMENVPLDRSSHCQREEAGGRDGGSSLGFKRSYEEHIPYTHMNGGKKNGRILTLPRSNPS
Put plainly: TR-FRET kinase assay of purified hIR. To be noted: activated hIR 0.5 nM, 10 μM ATP, values given as pIC50 category. Format: biochemical.

Assay [2] addresses ALK (Homo sapiens, UniProt Q9UM73). Description: ALK enzyme assay (HTRF). Format: biochemical. As to conditions: 0.25 nM ALK, 15.0 μM ATP, values given as pIC50 category. Put shortly: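 Isolated ALK phosphorylates a biotinylated tyrosine peptide, 120 min at 20° C; anti-phosphotyrosine Eu-cryptate/streptavidin-XL665 HTRF read after 60 min with EDTA-containing detection mix.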
Assay [3] concerns the target T2, NIH-3T3 cells overexpressing human IGF-1R (Homo sapiens, UniProt P08069).
T2 construct: expressed in transfected cells; host or cells: NIH-3T3 (mouse fibroblasts)
Description: IGF-1R cellular autophosphorylation (DELFIA). Format: cell-based. Put shortly: (§1)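 Receptor autophosphorylation measured by DELFIA, capturing IGF-1R or IRβ and detecting with europium anti-pTyr, reported as percent of IGF-1- or insulin-stimulated signal. Compounds (30 uM to 1.5 nM) added 2 h before ligand, then 15 min stimulation (IGF-1 30 ng/ml or insulin 3 ug/ml).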

In assay [4] the target is T3, NIH-3T3 cells overexpressing human IR (Homo sapiens, UniProt P06213).
T3 construct: expressed in transfected cells; host or cells: NIH-3T3 (mouse fibroblasts)
T3 sequence (P06213 28-1382): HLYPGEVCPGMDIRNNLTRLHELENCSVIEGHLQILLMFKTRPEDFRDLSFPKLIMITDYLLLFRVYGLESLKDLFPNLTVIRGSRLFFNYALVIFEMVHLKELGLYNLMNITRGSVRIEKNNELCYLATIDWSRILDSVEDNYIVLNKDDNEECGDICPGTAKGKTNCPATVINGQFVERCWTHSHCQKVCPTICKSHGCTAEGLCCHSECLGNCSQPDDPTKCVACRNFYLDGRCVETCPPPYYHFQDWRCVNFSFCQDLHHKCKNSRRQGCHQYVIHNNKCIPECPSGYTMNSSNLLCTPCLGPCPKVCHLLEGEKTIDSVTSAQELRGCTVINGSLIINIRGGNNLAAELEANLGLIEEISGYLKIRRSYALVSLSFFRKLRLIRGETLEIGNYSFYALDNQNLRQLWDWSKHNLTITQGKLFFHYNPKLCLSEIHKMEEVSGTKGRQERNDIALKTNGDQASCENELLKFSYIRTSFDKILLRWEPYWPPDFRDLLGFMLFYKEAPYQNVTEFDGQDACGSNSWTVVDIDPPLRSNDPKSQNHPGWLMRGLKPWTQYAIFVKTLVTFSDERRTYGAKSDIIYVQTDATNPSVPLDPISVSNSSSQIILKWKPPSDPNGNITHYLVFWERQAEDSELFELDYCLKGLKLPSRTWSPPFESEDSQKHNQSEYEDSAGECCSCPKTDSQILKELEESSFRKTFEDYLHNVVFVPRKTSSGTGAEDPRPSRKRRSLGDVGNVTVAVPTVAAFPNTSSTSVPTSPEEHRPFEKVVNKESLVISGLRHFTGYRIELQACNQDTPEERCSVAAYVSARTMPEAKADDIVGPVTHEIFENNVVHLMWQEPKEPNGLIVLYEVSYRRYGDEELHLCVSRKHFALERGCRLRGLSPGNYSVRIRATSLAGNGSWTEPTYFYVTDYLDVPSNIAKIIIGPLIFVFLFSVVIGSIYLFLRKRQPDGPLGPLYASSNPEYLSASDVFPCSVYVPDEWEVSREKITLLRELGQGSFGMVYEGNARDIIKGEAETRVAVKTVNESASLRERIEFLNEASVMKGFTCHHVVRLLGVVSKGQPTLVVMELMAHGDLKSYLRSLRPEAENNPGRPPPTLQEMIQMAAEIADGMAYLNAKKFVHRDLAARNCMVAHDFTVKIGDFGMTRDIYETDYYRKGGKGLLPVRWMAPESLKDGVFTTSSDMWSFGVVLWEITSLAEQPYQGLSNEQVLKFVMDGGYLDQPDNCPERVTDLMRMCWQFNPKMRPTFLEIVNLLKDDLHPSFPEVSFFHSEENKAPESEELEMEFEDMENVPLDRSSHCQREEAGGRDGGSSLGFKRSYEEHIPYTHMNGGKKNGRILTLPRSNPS
Description: IR cellular autophosphorylation (DELFIA). Format: cell-based. As to conditions: 2 h compound, insulin 3 ug/ml for 15 minutes, IC50 category. Put shortly:
as §1

T2 sequence (P08069 31-1367): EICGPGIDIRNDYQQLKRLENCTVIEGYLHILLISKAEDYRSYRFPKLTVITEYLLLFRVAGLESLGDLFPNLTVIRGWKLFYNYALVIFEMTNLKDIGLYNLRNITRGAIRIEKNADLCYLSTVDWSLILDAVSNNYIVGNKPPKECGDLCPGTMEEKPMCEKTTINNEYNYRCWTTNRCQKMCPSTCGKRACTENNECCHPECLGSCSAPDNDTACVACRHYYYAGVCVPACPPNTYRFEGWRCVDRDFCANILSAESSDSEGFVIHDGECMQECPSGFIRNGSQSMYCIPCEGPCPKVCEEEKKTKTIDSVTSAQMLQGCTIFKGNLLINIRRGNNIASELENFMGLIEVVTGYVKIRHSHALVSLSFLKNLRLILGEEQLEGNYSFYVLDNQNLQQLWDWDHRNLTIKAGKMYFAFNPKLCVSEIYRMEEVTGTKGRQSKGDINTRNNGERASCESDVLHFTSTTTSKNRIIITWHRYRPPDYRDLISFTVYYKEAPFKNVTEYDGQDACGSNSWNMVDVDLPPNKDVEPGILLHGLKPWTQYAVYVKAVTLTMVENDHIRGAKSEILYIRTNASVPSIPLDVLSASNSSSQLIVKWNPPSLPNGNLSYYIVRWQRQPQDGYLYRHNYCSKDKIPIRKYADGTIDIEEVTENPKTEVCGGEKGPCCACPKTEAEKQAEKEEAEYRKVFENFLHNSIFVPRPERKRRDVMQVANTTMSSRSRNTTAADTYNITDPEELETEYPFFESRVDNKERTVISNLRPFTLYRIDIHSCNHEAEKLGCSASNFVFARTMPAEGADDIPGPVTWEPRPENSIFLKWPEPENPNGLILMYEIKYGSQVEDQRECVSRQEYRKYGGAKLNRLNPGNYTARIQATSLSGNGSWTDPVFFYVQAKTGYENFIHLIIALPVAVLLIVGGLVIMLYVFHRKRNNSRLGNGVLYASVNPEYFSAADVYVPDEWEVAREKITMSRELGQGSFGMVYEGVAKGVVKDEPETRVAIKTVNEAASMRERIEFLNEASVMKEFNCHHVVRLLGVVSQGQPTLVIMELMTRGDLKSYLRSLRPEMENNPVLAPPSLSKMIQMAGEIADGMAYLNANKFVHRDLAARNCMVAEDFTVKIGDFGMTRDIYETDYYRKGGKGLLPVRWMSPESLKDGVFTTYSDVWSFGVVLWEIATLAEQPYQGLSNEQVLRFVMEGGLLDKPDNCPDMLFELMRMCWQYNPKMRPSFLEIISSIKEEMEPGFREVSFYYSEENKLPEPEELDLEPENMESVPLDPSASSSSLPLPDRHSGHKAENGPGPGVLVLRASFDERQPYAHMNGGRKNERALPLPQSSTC
Sequence of ALK (Q9UM73 19-1620): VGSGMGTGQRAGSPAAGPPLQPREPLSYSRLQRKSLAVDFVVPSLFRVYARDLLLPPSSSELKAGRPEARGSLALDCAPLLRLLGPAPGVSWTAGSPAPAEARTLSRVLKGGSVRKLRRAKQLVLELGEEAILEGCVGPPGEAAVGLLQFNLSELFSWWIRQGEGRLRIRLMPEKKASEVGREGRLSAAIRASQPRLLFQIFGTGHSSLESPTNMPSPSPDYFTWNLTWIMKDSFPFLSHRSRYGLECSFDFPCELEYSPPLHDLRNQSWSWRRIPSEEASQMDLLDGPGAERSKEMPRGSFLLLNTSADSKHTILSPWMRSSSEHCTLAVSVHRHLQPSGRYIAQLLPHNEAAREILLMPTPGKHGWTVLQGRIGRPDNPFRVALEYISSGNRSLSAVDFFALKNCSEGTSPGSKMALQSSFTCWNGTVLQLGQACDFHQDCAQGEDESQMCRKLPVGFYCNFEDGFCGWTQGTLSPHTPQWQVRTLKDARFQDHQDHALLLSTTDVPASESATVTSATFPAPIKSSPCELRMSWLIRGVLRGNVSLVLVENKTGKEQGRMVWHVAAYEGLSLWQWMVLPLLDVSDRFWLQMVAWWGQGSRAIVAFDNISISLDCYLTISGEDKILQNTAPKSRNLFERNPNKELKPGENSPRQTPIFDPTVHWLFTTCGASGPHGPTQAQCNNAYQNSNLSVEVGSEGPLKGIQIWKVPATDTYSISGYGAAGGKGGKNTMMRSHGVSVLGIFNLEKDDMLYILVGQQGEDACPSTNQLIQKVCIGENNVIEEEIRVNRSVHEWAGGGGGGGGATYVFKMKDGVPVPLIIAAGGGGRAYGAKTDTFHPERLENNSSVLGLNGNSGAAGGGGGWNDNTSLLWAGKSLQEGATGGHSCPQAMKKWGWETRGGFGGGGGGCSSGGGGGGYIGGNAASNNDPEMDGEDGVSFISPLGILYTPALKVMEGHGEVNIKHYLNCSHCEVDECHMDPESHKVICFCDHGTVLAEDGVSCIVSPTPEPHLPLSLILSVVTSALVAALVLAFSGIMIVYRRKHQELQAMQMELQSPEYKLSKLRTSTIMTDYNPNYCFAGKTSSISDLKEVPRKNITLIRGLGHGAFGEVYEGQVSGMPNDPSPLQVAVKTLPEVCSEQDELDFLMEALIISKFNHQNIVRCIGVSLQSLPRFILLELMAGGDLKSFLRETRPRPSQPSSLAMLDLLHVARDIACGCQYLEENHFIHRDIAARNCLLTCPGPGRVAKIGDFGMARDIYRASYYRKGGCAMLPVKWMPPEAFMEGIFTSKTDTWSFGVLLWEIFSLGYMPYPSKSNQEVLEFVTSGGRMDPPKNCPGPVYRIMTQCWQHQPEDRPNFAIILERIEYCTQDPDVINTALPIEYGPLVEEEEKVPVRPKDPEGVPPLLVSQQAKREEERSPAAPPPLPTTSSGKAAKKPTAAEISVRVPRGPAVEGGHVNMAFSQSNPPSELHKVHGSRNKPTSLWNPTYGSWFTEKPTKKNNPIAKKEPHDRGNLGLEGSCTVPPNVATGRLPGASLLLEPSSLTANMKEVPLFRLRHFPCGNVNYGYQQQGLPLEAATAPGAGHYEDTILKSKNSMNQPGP

For the compound `COc1cc2c(cc1Nc1nc(Nc3cccc(F)c3C(N)=O)c3cc[nH]c3n1)CN(C(=O)CN(C)C)CC2` [Example 123, 2-[(2-{[2-(N,N-dimethylglycyl)-6-(methyloxy)-1,2,3,4-tetrahydro-7-isoquinolinyl]amino}-1H-pyrrolo[2,3-d]pyrimidin-4-yl)amino]-6-fluorobenzamide], the half-maximal inhibitory concentration (IC50) in assay [1] is 1.26 to 3.98 nM; in assay [2], 1.26 to 3.98 nM; in assay [3], 100 to 500 nM; in assay [4], 100 to 500 nM.

For the compound `CCNC(=O)c1c(F)cccc1Nc1nc(Nc2cc3c(cc2OC)CCN3C(=O)CN(C)C)nc2[nH]ccc12` [Example 126, 2-[(2-{[1-(N,N-dimethylglycyl)-5-(methyloxy)-2,3-dihydro-1H-indol-6-yl]amino}-1H-pyrrolo[2,3-d]pyrimidin-4-yl)amino]-N-ethyl-6-fluorobenzamide], the IC50 in assay [1] is 1.26 to 3.98 nM; in assay [2] it was 0.251 to 1 nM; in assay [3], 100 to 500 nM; in assay [4] it was 100 to 500 nM.

Take `CNC(=O)c1c(F)cccc1Nc1nc(Nc2cc3c(cc2OC)C(C)(C)CN3C(=O)CN(C)C)nc2[nH]ccc12` [Example 127, 2-[(2-{[1-(N,N-dimethylglycyl)-3,3-dimethyl-5-(methyloxy)-2,3-dihydro-1H-indol-6-yl]amino}-1H-pyrrolo[2,3-d]pyrimidin-4-yl)amino]-6-fluoro-N-methylbenzamide]: the IC50 was 1.26 to 3.98 nM in assay [1], 0.251 to 1 nM in assay [2], less than 100 nM in assay [3] and less than 100 nM in assay [4].

On to `CCN(CC)CC(=O)N1CCc2cc(OC)c(Nc3nc(Nc4cccc(F)c4C(N)=O)c4cc[nH]c4n3)cc21` [Example 136, 2-[(2-{[1-(N,N-diethylglycyl)-5-(methyloxy)-2,3-dihydro-1H-indol-6-yl]amino}-1H-pyrrolo[2,3-d]pyrimidin-4-yl)amino]-6-fluorobenzamide], for which the IC50 in assay [1] was 1.26 to 3.98 nM; in assay [2] it was 1.26 to 3.98 nM; in assay [3] it was less than 100 nM; in assay [4], less than 100 nM.

As to `COc1cc2c(cc1Nc1nc(Nc3cccc(F)c3C(N)=O)c3cc[nH]c3n1)N(C(=O)CN1CCCC1)CC2` [Example 138, 2-fluoro-6-[(2-{[5-(methyloxy)-1-(1-pyrrolidinylacetyl)-2,3-dihydro-1H-indol-6-yl]amino}-1H-pyrrolo[2,3-d]pyrimidin-4-yl)amino]benzamide], the IC50 in assay [1] is 0.251 to 1 nM; in assay [2], 1.26 to 3.98 nM; in assay [3], less than 100 nM; in assay [4] it was less than 100 nM.

As to `CNC(=O)c1c(F)cccc1Nc1nc(Nc2cc3c(cc2OC)CCN3C(=O)CN2CCCC2)nc2[nH]ccc12` [Example 139, 2-fluoro-N-methyl-6-[(2-{[5-(methyloxy)-1-(1-pyrrolidinylacetyl)-2,3-dihydro-1H-indol-6-yl]amino}-1H-pyrrolo[2,3-d]pyrimidin-4-yl)amino]benzamide], the IC50 in assay [1] was 1.26 to 3.98 nM; in assay [2], 0.251 to 1 nM; in assay [3] it was less than 100 nM; in assay [4], 100 to 500 nM.

As for `COc1cc2c(cc1Nc1nc(Nc3cccc(F)c3C(N)=O)c3cc[nH]c3n1)N(C(=O)CN)CC2` [Example 141, 2-fluoro-6-[(2-{[1-glycyl-5-(methyloxy)-2,3-dihydro-1H-indol-6-yl]amino}-1H-pyrrolo[2,3-d]pyrimidin-4-yl)amino]benzamide], the 50% inhibitory concentration (IC50) in assay [1] is 1.26 to 3.98 nM; in assay [2], 1.26 to 3.98 nM; in assay [3], greater than 500 nM; in assay [4] it was greater than 500 nM.

Take `CNCC(=O)N1CCc2cc(OC)c(Nc3nc(Nc4cccc(F)c4C(N)=O)c4cc[nH]c4n3)cc21` [Example 142, 2-fluoro-6-[(2-{[1-(N-methylglycyl)-5-(methyloxy)-2,3-dihydro-1H-indol-6-yl]amino}-1H-pyrrolo[2,3-d]pyrimidin-4-yl)amino]benzamide]: the IC50 was 1.26 to 3.98 nM in assay [1], 1.26 to 3.98 nM in assay [2], less than 100 nM in assay [3] and 100 to 500 nM in assay [4].
